Data: patent publication US20230330254A1 (Regeneron Pharmaceuticals, Inc., priority 2022, published 2023)
*1 amine or outer side, *2 acyl side, *3 side chain or, on linkers, in order; H or OH if unused. Where a SMILES comes first, the peptide text is derived from it. Side-chain parts run from the residue outwards. [ ]: non-standard residue; d: D form. The star is where a group is joined. PEG24 = NCCOCCOCCOCCOCCOCCOCCOCCOCCOCCOCCOCCOCCOCCOCCOCCOCCOCCOCCOCCOCCOCCOCCOCCOCCC(=O)O; Bip(2'-Et-4'-O(CH2)4NH2) = CCc1cc(OCCCCN[*:3])ccc1-c1ccc(C[C@H](N[*:1])C(=O)[*:2])cc1; Bip(2'-Et,4'-O(CH2)4N3) = CCc1cc(OCCCCN=[N+]=[N-])ccc1-c1ccc(C[C@H](N)C(=O)O)cc1; Malonyl(2,2-Me2,histaminyl) = CC(C)(C(=O)NCCc1cnc[nH]1)C(=O)*; Nva(5-(3,5-Me2Ph)) = Cc1cc(C)cc(CCC[C@H](N)C(=O)O)c1; Ala(1H-tetrazol-5-yl) = N[C@@H](Cc1nnn[nH]1)C(=O)O; αMePhe(2-F) = C[C@](N)(Cc1ccccc1F)C(=O)O; DBCO = C1#Cc2ccccc2N(*)Cc2ccccc21; Suc = O=C(CCC(=O)[*:2])[*:1]

Legend:
[1] = Liver microsome stability; type: in vitro ADME, human; details: human, microsomes, Table 7
Procedure: To assess the in vitro ADME properties of the LP, microsomal stability assay was performed to determine intrinsic clearance, and plasma protein binding assay was performed to understand the distribution potential.

[2] = Plasma protein binding (equilibrium dialysis); type: in vitro ADME, human; details: Human Plasma; 4 hours dialysis
Procedure: The pH value of the resulting plasma was checked
(<http://www.htdialysis.com/>).
DMSO working solutions were prepared at 400 μM. […] These samples were transferred into new 96-well plates.

[3] = Plasma stability of payloads and linker-payloads, human plasma; type: in vitro ADME; details: 2 μM, 37° C., read-out: Human plasma stability assay T½ (converted)
In short: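 Pooled plasma, pH adjusted to 7.4±0.1 where needed, spiked to 2 μM compound (duplicate) and incubated at 37 °C. At each time point, protein was precipitated with ACN/MeOH stop solution containing internal standards; remaining compound quantified in supernatant by LC-MS/MS.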

HEK293/CRE-Luc cells [4] = assay: Luciferase reporter assay, HEK293/CRE-Luc cells without hGLP1R (Example 11); type: cell-based, human; details: Experiment A
In short: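 Counter-screen in HEK293 cells carrying CRE-driven firefly luciferase without hGLP1R; 3-fold serial dilutions of payloads or linker-payloads at 0.2% final DMSO, 4–6 h.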

human GLP1R [5] = molecular target: T1, human GLP1R (Homo sapiens, UniProt P43220); assay: CRE-luciferase reporter assay, HEK293/Myc-hGLP1R/Cre-Luc (Example 9); type: cell-based; design: engineered to express full-length human GLP1R, cynomolgus GLP1R; expressed in transfected cells; host or cells: HEK293/CRE-Luc; details: Table 9; 5.5 h; read-out: HEK293/Myc-hGLP1R/Cre-Luc EC50
Procedure: To test the activity of GLP1R agonist payloads and GLP1R agonist linker-payloads (LPs) in vitro, a cell-based cAMP responsive luciferase reporter assay was developed.
Cells were incubated overnight at 37° C. in 5% CO2. […] Plates were incubated for 5.5 h at 37° C. in 5% CO2. For end-point measurement, 100 μL/well of One-Glo reagent (Promega, #E6051) was added and plates were kept at room temperature for 5-10 minutes. Luciferase activity was measured on Envision Multilabel Plate Reader (Perkin Elmer) in Luminescent mode. The relative light units (RLU) values were obtained and the results were analyzed using nonlinear regression with GraphPad Prism software (GraphPad).

human GLP1R [6] = molecular target: T1, human GLP1R; assay: Luciferase reporter assay, HEK293/CRE-Luc/hGLP1R cells (Example 11); type: cell-based; design: engineered to express full-length human GLP1R, cynomolgus GLP1R; expressed in transfected cells; host or cells: HEK293/CRE-Luc
human GLP1R [7] = molecular target: T1, human GLP1R; assay: Human GLP1R cAMP accumulation assay; type: cell-based; design: HEK293 cells over-expressing full length human GLP-1R were utilized; expressed in transfected cells; host or cells: HEK293 (HEK293/hGLP1R)
In short: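 cAMP accumulation measured after 30 min at 23° C, with 500 μM IBMX in HEPES-buffered HBSS plus 0.1% BSA, in HEK293 cells expressing full-length hGLP-1R. Levels read by D2-cAMP/antibody immunoassay via standard curve, scaled between low and high controls. EC50 fitted four-parameter over a 10-point curve.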

HEK293/CRE-Luc cells [8] = assay: Luciferase reporter assay, HEK293/CRE-Luc cells without GLP1R (Example 17); type: cell-based, human; details: HEK293/CRE-Luc cells without hGLP1R, payloads and linker-payloads
In short: (§1)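 HEK293 cells carrying a CRE-driven firefly luciferase reporter were exposed to 3-fold serial dilutions of payloads or linker-payloads (12 points, 0.2% DMSO final) for 4–6 h, then luminescence was read. EC50 came from a four-parameter logistic fit; S/N is top RLU over untreated wells, and relative potency and S/N are referenced to M2361.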

human GLP1R [9] = molecular target: T1, human GLP1R; assay: Luciferase reporter assay, HEK293/CRE-Luc/hGLP1R (Example 17); type: cell-based; design: engineered to express full-length human GLP1R, cynomolgus GLP1R; expressed in transfected cells; host or cells: HEK293/CRE-Luc; details: HEK293/CRE-Luc/hGLP1R
In short: as §1

[10] = Plasma stability of payloads and linker-payloads, mouse plasma; type: in vitro ADME; details: for half-life at 2 µM: mouse, pooled plasma
Procedure: The plasma stability of payloads and linker payloads of the disclosure were measured. For the assay, pooled frozen plasma (human, mouse or monkey) was thawed in cold water or a 37° C. water bath prior to experiment. Plasma was centrifuged at 4000 rpm for 5 min if any clots were observed, they were subsequently removed. If required, the pH was adjusted to 7.4±0.1. For the preparation of compounds and positive controls, a 1 mM intermediate solution was prepared by diluting 10 μL of their stock solution with 90 μL DMSO; a 1 mM intermediate solution of the positive control (Propantheline) was prepared by diluting 10 μL of its stock solution with 90 μL ultrapure water. Subsequently, 100 μM dosing solution for each compound was prepared by diluting 20 μL of the intermediate solution (1 mM) with 180 μL 45% MeOH/H2O. 98 μL of plasma was spiked with 2 μL of dosing solution (100 μM) to achieve the final concentration of 2 μM in duplicate. Samples were then incubated at 37° C. in a water bath. […] At each time point, 400 μL of stop solution (200 ng/mL tolbutamide plus 200 ng/mL labetalol in 50% ACN/MeOH) was added to precipitate protein and mixed thoroughly. Sample plates were then centrifuged at 4,000 rpm for 10 min. An aliquot of supernatant (50 μL) was transferred from each well and mixed with 100 μL ultrapure water. The samples were then shaken at 800 rpm for approximately 10 min before submitting for LC-MS/MS analysis.

[11] = relative to M2361 of the same experiment

T1 sequence (P43220 24-463): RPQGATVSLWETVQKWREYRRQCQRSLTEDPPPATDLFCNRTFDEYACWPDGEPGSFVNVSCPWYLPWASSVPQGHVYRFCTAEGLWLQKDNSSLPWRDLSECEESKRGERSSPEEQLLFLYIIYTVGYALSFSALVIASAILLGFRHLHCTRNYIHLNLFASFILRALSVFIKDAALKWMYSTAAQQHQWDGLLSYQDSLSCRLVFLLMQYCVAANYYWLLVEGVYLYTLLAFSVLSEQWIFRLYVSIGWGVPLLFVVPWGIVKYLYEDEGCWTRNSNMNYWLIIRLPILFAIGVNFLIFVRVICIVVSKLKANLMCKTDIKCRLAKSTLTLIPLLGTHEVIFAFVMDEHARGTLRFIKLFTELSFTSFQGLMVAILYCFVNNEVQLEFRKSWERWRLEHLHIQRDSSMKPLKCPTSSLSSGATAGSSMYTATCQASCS

C[C@]12CC[C@H]3[C@@H](CCC4=CC(=O)CC[C@@]43C)[C@@H]1CC[C@@H]2O [Testosterone]
CLint scaled ([1]; read-out: CLint(liver)): 77.2 mL/min/kg
microsomal CLint ([1]; read-out: CLint(mic)): 85.7 µL/min/mg

CC(=O)CC(c1ccccc1)c1c(O)c2ccccc2oc1=O (centres unmarked) [Warfarin]
recovery at 4 h, 2 µM [2]: 98.3%

CCc1cc(OCCCCN=[N+]=[N-])ccc1-c1ccc(C[C@H](NC(=O)[C@H](CC(=O)O)NC(=O)[C@H](CO)NC(=O)[C@@H](NC(=O)[C@](C)(Cc2ccccc2F)NC(=O)[C@@H](NC(=O)CNC(=O)[C@H](Cc2nn[nH]n2)NC(=O)C(C)(C)C(=O)NCCc2cnc[nH]2)[C@@H](C)O)[C@@H](C)O)C(=O)N[C@@H](CCCc2cc(C)cc(C)c2)C(N)=O)cc1 [P8] ({Malonyl(2,2-Me2,histaminyl)}-[Ala(1H-tetrazol-5-yl)]GT[αMePhe(2-F)]TSD[Bip(2'-Et,4'-O(CH2)4N3)][Nva(5-(3,5-Me2Ph))]-NH2)
half-life at 2 µM ([3]; plasma, pH 7.4, tested time A (1 day per footnote)): > 57.8 h
EC50 (HEK293/CRE-Luc cells [4]; Table 11, no hGLP1R expression): > 200 nM
HEK293/CRE-LUC S/N (HEK293/CRE-Luc cells [4]; Table 11, no hGLP1R expression): 1.5
EC50 (HEK293/CRE-Luc cells [4]; Table 12): > 20 nM
HEK293/CRE-Luc S/N (HEK293/CRE-Luc cells [4]; Table 12): 1.3
EC50 (human GLP1R [5]): 0.0076 nM
EC50 (human GLP1R [6]; Table 11, Experiment A): 0.00531 nM
HEK293/CRE-LUC/hGLP1R Relative Potency (% P8 EC50) (human GLP1R [6]; Table 11, Experiment A): 100.0%
HEK293/CRE-LUC/hGLP1R S/N (human GLP1R [6]; Table 11, Experiment A): 65.8
EC50 (human GLP1R [6]; Table 11, Experiment B): 0.02 nM
HEK293/CRE-LUC/hGLP1R Relative Potency (% P8 EC50) (human GLP1R [6]; Table 11, Experiment B): 100.0%
HEK293/CRE-LUC/hGLP1R S/N (human GLP1R [6]; Table 11, Experiment B): 327.9
EC50 (human GLP1R [6]; Table 11, Experiment D): 0.0273 nM
HEK293/CRE-LUC/hGLP1R Relative Potency (% P8 EC50) (human GLP1R [6]; Table 11, Experiment D): 100.0%
HEK293/CRE-LUC/hGLP1R Relative Signal:Noise (% P8) (human GLP1R [6]; Table 11, Experiment D): 100.0%
HEK293/CRE-LUC/hGLP1R S/N (human GLP1R [6]; Table 11, Experiment D): 235.9
EC50 (human GLP1R [6]; Table 12, Experiment A): 0.0162 nM
HEK293/CRE-Luc/hGLP1R Relative Potency (% P8 EC50) (human GLP1R [6]; Table 12, Experiment A): 100.0%
HEK293/CRE-Luc/hGLP1R Relative Signal:Noise (% P8) (human GLP1R [6]; Table 12, Experiment A): 100.0%
HEK293/CRE-Luc/hGLP1R S/N (human GLP1R [6]; Table 12, Experiment A): 64.3
EC50 (human GLP1R [6]; Table 12, Experiment D): 0.0273 nM
HEK293/CRE-Luc/hGLP1R Relative Potency (% P8 EC50) (human GLP1R [6]; Table 12, Experiment D): 100.0%
HEK293/CRE-Luc/hGLP1R Relative Signal:Noise (% P8) (human GLP1R [6]; Table 12, Experiment D): 100.0%
HEK293/CRE-Luc/hGLP1R S/N (human GLP1R [6]; Table 12, Experiment D): 235.9
EC50 (human GLP1R [7]; HEK293/hGLP1R cells, Table 4, read-out: cAMP EC50): 0.497 nM

CCc1cc(OCCCCNC(=O)CCOCCOCCOCCOCCOCCOCCOCCOCCOCCOCCOCCOCCOCCOCCOCCOCCOCCOCCOCCOCCOCCOCCOCCOCCNC(=O)CCC(=O)N2Cc3ccccc3C#Cc3ccccc32)ccc1-c1ccc(C[C@H](NC(=O)[C@H](CC(=O)O)NC(=O)[C@H](CO)NC(=O)[C@@H](NC(=O)[C@](C)(Cc2ccccc2F)NC(=O)[C@@H](NC(=O)CNC(=O)[C@H](Cc2nn[nH]n2)NC(=O)C(C)(C)C(=O)NCCc2cnc[nH]2)[C@@H](C)O)[C@@H](C)O)C(=O)N[C@@H](CCCc2cc(C)cc(C)c2)C(N)=O)cc1 [LP4, DIBAC-suc-PEG24-P9] ({Malonyl(2,2-Me2,histaminyl)}-[Ala(1H-tetrazol-5-yl)]GT[αMePhe(2-F)]TSD[Bip(2'-Et-4'-O(CH2)4NH2)]([PEG24-Suc-DBCO])[Nva(5-(3,5-Me2Ph))]-NH2)
EC50 (HEK293/CRE-Luc cells [4]; Table 11, no hGLP1R expression): > 200 nM
HEK293/CRE-LUC S/N (HEK293/CRE-Luc cells [4]; Table 11, no hGLP1R expression): 1.7
S/N (HEK293/CRE-Luc cells [8]): 1.7
EC50 (HEK293/CRE-Luc cells [8]; read-out: EC50): > 200 nM
EC50 (human GLP1R [5]): 0.0715 nM
EC50 (human GLP1R [6]; Table 11, Experiment A): 0.127 nM
HEK293/CRE-LUC/hGLP1R Relative Potency (% P8 EC50) (human GLP1R [6]; Table 11, Experiment A): 4.2%
HEK293/CRE-LUC/hGLP1R S/N (human GLP1R [6]; Table 11, Experiment A): 63.8
S/N (human GLP1R [9]; highest RLU / RLU of untreated wells): 63.8
Relative Potency (% M2361 EC50) (human GLP1R [9]; [11]): 4.2%
Relative Signal:Noise (% M2361) (human GLP1R [9]; [11]): 97.1%

CCc1cc(OC)ccc1-c1ccc(C[C@H](NC(=O)[C@H](CC(=O)O)NC(=O)[C@H](CO)NC(=O)[C@@H](NC(=O)[C@](C)(Cc2ccccc2F)NC(=O)[C@@H](NC(=O)CNC(=O)[C@H](Cc2nn[nH]n2)NC(=O)C(C)(C)C(=O)NCCc2cnc[nH]2)[C@@H](C)O)[C@@H](C)O)C(=O)N[C@@H](CCCc2ccc(OCCCCNC(=O)CCOCCOCCOCCOCCOCCOCCOCCOCCOCCOCCOCCOCCOCCOCCOCCOCCOCCOCCOCCOCCOCCOCCOCCOCCNC(=O)CCC(=O)N3Cc4ccccc4-c4c(nnn4CC4OC5OC6C(CO)OC(OC7C(CO)OC(OC8C(CO)OC(OC9C(CO)OC(OC%10C(CO)OC(OC4C(O)C5O)C(O)C%10O)C(O)C9O)C(O)C8O)C(O)C7O)C(O)C6O)-c4ccccc43)cc2)C(N)=O)cc1 (some centres unmarked) [LP23, cyclo-dex-trin-triazole-DIBAC-suc-PEG24-P24]
half-life at 2 µM ([3]; pooled plasma, pH 7.4, tested time B (2 hrs per footnote)): > 4.8 h
plasma stability T½ ([10]; Mouse, assay time 2 hr, Table 5B): >4 h
half-life at 2 µM ([10]; pH 7.4, Mouse, assay time 2 hr, Table 5B, read-out: plasma stability T½): > 4 h
half-life at 2 µM ([10]; pH 7.4, Table 5A, mouse plasma, tested time B (2 hrs), read-out: plasma stability T½ (hr), mouse): > 4.8 h
EC50 (human GLP1R [7]): 0.534 nM
